Converted amounts (≈) assume the structure as drawn. “Also recorded” adds a separate entry of the source. Where two headings read alike, the source gives them in different places.
Key:
SRB assay, cytotoxicity [1] = type: cell-based, mouse; settings: mouse, 3T3-L1 cells; 3T3-L1, SRB, 24 h exposure, three independent repeats; read-out: Cytotoxicity (IC50 ± SD)
Method: (§1) The HT-29 cells (ATCC, Manassas, VA, USA) were cultured within α-MEM (IIET PAS, Wrocław, Poland) supplemented with 10% fetal bovine serum (Sigma, St. Louis, MO, USA), antimycotic (100 μg/mL penicillin, 100 μg/mL streptomycin and 0.25 μg/mL amphotericin) (Sigma) and 2 mM glutamine (Sigma). The 3T3-L1 cells (ATCC, Manassas, VA, USA) were cultivated using DMEM high-glucose medium (IIET PAS, Wrocław, Poland) supplemented as above. Both cell lines were cultured at 37 °C in an atmosphere of 5% CO2.
(§2) The sulforhodamine B (SRB) assay was performed according to a previously published protocol. Briefly, 1 × 10^4 HT-29 or 5 × 10^3 3T3-L1 cells were seeded into 96-well plates. After attaching to the plate surface, the cells were incubated with 100, 75, 50, 25, 10 or 1 µg/mL of the investigated compounds for 24 h. After this time, proteins were precipitated with trichloroacetic acid and stained with SRB. The absorbance was measured at 560 nm using a GloMax Discover Microplate Reader (Promega, Madison, WI, USA).

[2] = system: Staphylococcus aureus ATCC 25923; test: MBC assay; type: cell-based; settings: Staphylococcus aureus, ATCC25923; S. aureus ATCC 25923; read-out: MBC
Method: (§3) The minimum bactericidal concentration (MBC) was tested for all naringenin derivatives. First, 10 µL of medium was taken from the plate, on which the MIC was determined for the MIC value, the value below and the two values above. This volume was transferred to TSA or MC agar. After 18–24 h (depending on strain) incubation at 37 °C, colonies were counted. The concentration of test compounds at which no bacterial growth was observed was defined as the MBC value. Each experiment was repeated 3 times.

Escherichia coli K12 [3] = test: MBC assay; type: cell-based; settings: E. coli K12
Method: as §3

[4] = system: Enterococcus faecalis ATCC 29212; test: MBC assay; type: cell-based; settings: Enterococcus faecalis, ATCC29212; E. faecalis ATCC 29212; read-out: MBC
Method: as §3

HT-29 cells [5] = test: RealTime-Glo Annexin V Apoptosis and Necrosis Assay; type: cell-based, human; settings: for annexin V luminescence and necrosis fluorescence signals versus untreated cells: HT-29, during 12 h incubation, applied concentrations 10-100 µg/mL
Method: The process of apoptosis was determined using the RealTime-Glo Annexin V Apoptosis and Necrosis Assay (Promega) according to the manufacturer’s protocol. Briefly, 1 × 10^4 HT-29 cells were seeded into a single well of a 96-well plate. After overnight incubation, the cells were treated with 10, 25, 50 and 100 µg/mL of the investigated compounds and detection reagent for 24 h. As a negative control, untreated cells were used. The luminescence, fluorescence and OD525 signals were detected at each hour of the first 12 h of incubation. The end measurement was performed at the 24th hour of the experiment. All samples were prepared in triplicate, and then their means were calculated.

[6] = system: Staphylococcus aureus ATCC 25923; test: MIC, microdilution method; type: cell-based; settings: S. aureus ATCC 25923, MHB, 18 h, 37 °C, tested 512 to 1 µg/mL
Method: (§4) Non-pathogenic reference strains representing the intestinal microbiome were used for the studies: Escherichia coli K12, Staphylococcus aureus ATCC 25923 and Enterococcus faecalis ATCC 29212. All strains were obtained from the collection of the Department of Microbiology at the Medical University of Wrocław.
(§5) The strains were received from the museum (−80 °C) and grown in tryptic soy broth (TSB, OXOID, Basingstoke, UK) under continuous shaking conditions (MaxQTM6000 incubator shaker, Thermo Scientific, Waltham, MA, USA) at 125 rpm at 37 °C. Then, they were moved to the growth media, namely tryptic soy agar (TSA, OXOID, Basingstoke, UK) and MacConkey agar (MC, Millipore, Darmstadt, Germany) for S. aureus or E. faecalis and E. coli, respectively.
(§6) A fresh 18–24 h culture was used for each study. For this purpose, a culture with a density of 1.5 × 10^8 CFU/mL in Mueller–Hinton broth (MHB, OXOID, Basingstoke, UK) was prepared and used for further microdilution studies.
(§7) The antimicrobial activity of the O-alkyl derivatives of naringenin and their oximes was tested in vitro using the microdilution method, showing the minimum inhibitory concentration (MIC), in accordance with the recommendations of the European Antimicrobial Susceptibility Testing Committee EUCAST [44]. MICs were determined in 96-well microdilution plates. The tests were carried out in MHB medium. The O-alkyl derivatives of naringenin and their oximes were tested in the concentration range of 512 to 1 µg/mL in a geometric process in MHB medium. The final concentration of the test strains in each test well was 5 × 10^5 CFU/mL. MICs were read after 18 h (for E. coli and S. aureus) and 24 h (for E. faecalis) incubation at 37 °C.
(§8) A strain growth control (tested strain in medium), background control for tested compounds (naringenin derivatives in MHB), medium control (only pure MHB) and compound solvent control (DMSO at test compound concentration, strain and MHB) were set for each experiment. Each test was set up with three independent experiments, each as three separate replicates.
(§9) The […], OD600, was measured in a plate reader (ASYS UVM340, BIOCHROM Ltd., Cambridge, UK). The background control of the tested compounds and the clean medium were included in the absorbance results.

Escherichia coli K12 [7] = test: MIC, microdilution method; type: cell-based; settings: E. coli K12, MHB, 18 h, 37 °C, tested 512 to 1 µg/mL
Method: as §4, §5, §6, §7, §8, §9

[8] = system: Enterococcus faecalis ATCC 29212; test: MIC, microdilution method; type: cell-based; settings: E. faecalis ATCC 29212, MHB, 24 h, 37 °C, tested 512 to 1 µg/mL
Method: as §4, §5, §6, §7, §8, §9

SRB assay, cytotoxicity [9] = type: cell-based, human; settings: human, HT-29 cells; HT-29, SRB, 24 h exposure, three independent repeats; read-out: Cytotoxicity (IC50 ± SD)
Method: as §1, §2

[10] = system: caspase 3/7 in HT-29 cells; test: Caspase-Glo 3/7 Assay; type: cell-based, human; settings: HT-29, 50 µg/mL; for caspase 3/7 activation: measured at 6, 12, 24 and 48 h
Method: The activity of two effector caspases 3 and 7 was analyzed using the Caspase-Glo 3/7 Assay (Promega) according to the recommendations of the manufacturer. The cells were seeded at a density of 1 × 10^4 per well for the test on a 96-well plate. Then, cells were incubated with A2, B2, A9, B9 and NG at a concentration of 50 µg/mL for 48 h. Half an hour before each measurement of caspase activity, an equal volume of Caspase-Glo 3/7 substrate solution was added to cells. The luminescence signals were detected using a GloMax Discover Microplate Reader at the 6th, 12th, 24th and 48th hours of the experiment. The reactions for each sample were repeated in triplicate and presented as the mean value.

HT-29 cells [11] = test: MTT assay, cell viability; type: cell-based, human; settings: 24 h; for effect on colon adenocarcinoma cells (viability, MTT): HT-29, highest concentration 100 µg/mL
Method: as §1
First, 1 × 10^4 HT-29 cells or 5 × 10^3 3T3-L1 cells were seeded into a 96-well plate and incubated for one night. Then, cells were treated with different concentrations of the investigated compounds within 24 h. Afterwards, the medium was replaced with a fresh medium containing 0.5 mg/mL of 3-(4,5-dimethylthiazol-2-yl)-2,5-diphenyl-2H-tetrazolium bromide (MTT, Sigma) and incubated for 2 h at 37 °C. After removing the medium, the formazan salts were dissolved in dimethyl sulfoxide (DMSO, Sigma), and the absorbance of the solution was measured at 560 nm using a plate reader.

[12] = Escherichia coli, read-out: MBC
[13] = Staphylococcus aureus, ATCC25923, read-out: MIC
[14] = Escherichia coli, read-out: MIC
[15] = Enterococcus faecalis, ATCC29212, read-out: MIC

SMILES	IC50 at 24 h (SRB assay, cytotoxicity [1]) [µg/mL]	MBC [2] [µg/mL]	MBC (Escherichia coli K12 [3]; [12]) [µg/mL]	MBC [4] [µg/mL]	annexin V luminescence and necrosis fluorescence signals versus untreated cells (HT-29 cells [5])	MIC [6]	MIC [6, 13] [µg/mL]	MIC (Escherichia coli K12 [7]; [14]) [µg/mL]	MIC [8, 15] [µg/mL]	IC50 at 24 h (SRB assay, cytotoxicity [9]) [µg/mL]	caspase 3/7 activation [10]	effect on colon adenocarcinoma cells (viability, MTT) (HT-29 cells [11])	MIC [8]	melting point [°C]	onset of loss of membrane integrity (fluorescence signal), time shift with respect to luminescence (HT-29 cells [5]; HT-29, 50 µg/mL)	phosphatidylserine exposure (luminescent signal) on the outer side of the cell membrane (HT-29 cells [5]; HT-29, 50 µg/mL)	time of caspase 3/7 activation [10] [h]	reduction in cell viability (HT-29 cells [11]; HT-29, MTT, 10 µg/mL dose)	MBC (Escherichia coli K12 [3]) [µg/mL]	MIC (Escherichia coli K12 [7]) [µg/mL]
CCCCCCOc1ccc([C@@H]2CC(=O)c3c(O)cc(OCCCCCC)cc3O2)cc1 [A2, 7,4′-di-O-hexylnaringenin]	> 100	> 512	> 512	> 512	both signals were similar to those for untreated cells	>512 (>512) µg/mL	> 512	> 512	64 (≈ 145 µM)	> 100	neither membrane switching of phosphatidylserine nor caspase activation was observed	weak								
CCCCCCCCCCCOc1cc(O)c2c(c1)O[C@H](c1ccc(O)cc1)CC2=O [A9, 7-O-Undecylnaringenin]	10.2 ± 0.2 (≈ 23.8 µM)	> 512	> 512	> 512	both signals were similar to those for untreated cells	>512 (>512) µg/mL	> 512	> 512	512 (≈ 1200 µM)	17.9 ± 0.65 (≈ 41.8 µM)	significant caspase 3/7 activation was also detected	completely inhibited	512 (>512) µg/mL	103 to 104						
CCCCCCOc1ccc([C@@H]2CC(=NO)c3c(O)cc(OCCCCCC)cc3O2)cc1 [B2, 7,4′-di-O-hexylnaringenin oxime]	10.1 ± 6.49 (≈ 22.1 µM)	> 512	> 512	> 512	both signals were similar to those for untreated cells		> 512	> 512	> 512	49.8 ± 1.63 (≈ 109 µM)	neither membrane switching of phosphatidylserine nor caspase activation was observed		>512 (>512) µg/mL							
CCCCCCCCCCCOc1cc(O)c2c(c1)O[C@H](c1ccc(O)cc1)CC2=NO [B9, 7-O-Undecylnaringenin oxime]	6.74 ± 0.84 (≈ 15.3 µM)	> 512	> 512	> 512		>512 (>512) µg/mL	> 512	> 512	256 (≈ 580 µM)	11.4 ± 1.17 (≈ 25.9 µM)	rapid activation of caspase 3/7			171 to 173	more than 5 h	significantly increased; also recorded: increased the level of phosphatidylserine	≤ 12	more than 50%		
O=C1C[C@@H](c2ccc(O)cc2)Oc2cc(O)cc(O)c21 [NG, naringenin]	> 100	> 512	> 512	> 512	both signals were similar to those for untreated cells		512 (≈ 1880 µM)	512 (≈ 1880 µM)	> 512	> 100	neither membrane switching of phosphatidylserine nor caspase activation was observed	weak							> 512	512 (≈ 1880 µM)
